According to paper PMC11859825, “Discovery of Sphingosine Kinase Inhibition by Modified Quinoline-5,8-Diones” (Pharmaceuticals, 2025):
Several values for one entry are separate records, joined by “and”; a condition that tells them apart may be missing. Identical values can stand only once. Like-named read-outs stand apart in the source and are kept apart here.

Legend:
[1] = system: A498 kidney adenocarcinoma cells; set-up: method as in PMID 22970244; conditions: read-out: EC50, reduced proliferation; cited from earlier work
SphK2 = conditions: cited from earlier work
SphK1 = conditions: cited from earlier work
NCI-60 cell line panel = assay: NCI60 one-dose anticancer screen; assay type: cell-based, human; conditions: 10 μM, mean growth percentage across 60 cell lines
Experimental: A preliminary anticancer study was conducted through the National Cancer Institute 60 human tumour cell line panel (NCI60) on a representative selection of the aryl-ether quinoline-5,8-diones (Table 2). […].
One-dose study: Tested compounds were initially solubilised in DMSO, diluted into RPMI 1640 and 5% fetal bovine serum/L-glutamine and added to 96-well plates containing cell lines previously cultured for 24 h. After 48 h of incubation, the media were removed, and the cells were fixed and stained with sulforhodamine B to determine overall percent growth/total protein content. Unbound dye was removed with five washes of 1% acetic acid, and the plates were allowed to air dry. The dye was then resolubilised in Tris buffer, and the colourimetric absorbance was measured (515 nm). Growth inhibition was measured relative to the response generated from proliferating cells cultured under identical conditions for 48 h. Data from one-dose experiments pertain to the percentage growth at 10 μM [60, 61].

recombinant human SphK2 = target: T1, recombinant human SphK2 (Homo sapiens, UniProt Q9NRA0); assay: Fluorometric NBD-sphingosine sphingosine kinase inhibition assay, SphK2; conditions: for IC50: IC50 against SphK2
T1 sequence (Q9NRA0 1-654): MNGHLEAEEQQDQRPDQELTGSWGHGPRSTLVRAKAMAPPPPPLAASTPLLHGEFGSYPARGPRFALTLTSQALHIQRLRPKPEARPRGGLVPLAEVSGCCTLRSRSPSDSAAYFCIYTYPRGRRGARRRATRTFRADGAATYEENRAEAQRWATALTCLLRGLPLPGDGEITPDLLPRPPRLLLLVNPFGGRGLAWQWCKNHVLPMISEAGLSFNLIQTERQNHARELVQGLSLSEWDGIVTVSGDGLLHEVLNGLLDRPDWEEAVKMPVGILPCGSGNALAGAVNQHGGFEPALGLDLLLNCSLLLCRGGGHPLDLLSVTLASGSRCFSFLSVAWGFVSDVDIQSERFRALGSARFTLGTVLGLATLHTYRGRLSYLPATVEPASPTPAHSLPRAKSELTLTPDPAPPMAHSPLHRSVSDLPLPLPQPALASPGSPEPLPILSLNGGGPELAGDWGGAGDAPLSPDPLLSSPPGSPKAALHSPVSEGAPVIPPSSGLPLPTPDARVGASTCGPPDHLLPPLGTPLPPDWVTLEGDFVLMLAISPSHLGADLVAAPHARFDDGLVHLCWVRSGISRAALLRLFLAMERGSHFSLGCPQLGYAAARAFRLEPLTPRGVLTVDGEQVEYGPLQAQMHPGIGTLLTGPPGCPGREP
Experimental: (§1) The fluorescence-based assay involved incubating the quinoline-5,8-diones with SphK isoforms individually (recombinant SphK1 and SphK2 in duplicate) [41].
(§2) The relevant enzymes and inhibitors were incubated in total reaction volumes of 100 µL with 10 µM NBD-sphingosine, 500 µM 4-deoxypyridoxine and 1 mM Mg-ATP in assay buffer (100 mM Tris/HCl (pH 7.4), 150 mM NaCl, 2 mM Na3VO4 and 10 mM NaF) for 30 min at 37 °C. A reaction mixture containing no test SphK inhibitor served as the positive control, while a reaction mixture containing no Mg-ATP served as the negative control. Post-incubation, 100 µL of potassium phosphate buffer, pH 8.5, was added to each Eppendorf, followed by 500 µL of 2:1 Chloroform/Methanol. After brief mixing with a vortex, phases were separated by centrifugation at 2000 rpm for 5 min. […] Data are expressed as mean SD from a minimum of 2 independent experiments. […] From this, the IC50 values of several test inhibitors were calculated.

recombinant human SphK1 = recombinant human SphK1 (Homo sapiens, UniProt Q9NYA1); assay: Fluorometric NBD-sphingosine sphingosine kinase inhibition assay, SphK1; conditions: for IC50: IC50 against SphK1; for Selectivity between SphK1 and SphK2 (in words): single-concentration screen, SphK1 versus SphK2
Experimental: as §1, §2

[2] = system: head and neck squamous cell carcinoma (SCC) cells; set-up: method as in PMID 29109864; conditions: cited from earlier work
60 cell lines (NCI) = system: 60 cell lines (NCI); set-up: method as in NCI cancer-screening platform (NSC796101); conditions: ref NCI cancer-screening platform (NSC796101); read-out: Mean GI50 across 60 cell lines; cited from earlier work
[3] = read-out: SphK2 inhibition, 10 μM compound
[4] = read-out: Spk2 % (inhibition), Average, 10 μM, Tables S3-S5
[5] = read-out: Spk2 % (inhibition), replicate A, 10 μM, Tables S3-S5
[6] = read-out: Spk2 % (inhibition), replicate B, 10 μM, Tables S3-S5
[7] = read-out: SphK1 inhibition, 10 μM compound
[8] = read-out: Spk1 % (inhibition), Average, 10 μM, Tables S3-S5
[9] = read-out: Spk1 % (inhibition), replicate A, 10 μM, Tables S3-S5
[10] = read-out: Spk1 % (inhibition), replicate B, 10 μM, Tables S3-S5

Sequence of recombinant human SphK1 (Q9NYA1 whole entry): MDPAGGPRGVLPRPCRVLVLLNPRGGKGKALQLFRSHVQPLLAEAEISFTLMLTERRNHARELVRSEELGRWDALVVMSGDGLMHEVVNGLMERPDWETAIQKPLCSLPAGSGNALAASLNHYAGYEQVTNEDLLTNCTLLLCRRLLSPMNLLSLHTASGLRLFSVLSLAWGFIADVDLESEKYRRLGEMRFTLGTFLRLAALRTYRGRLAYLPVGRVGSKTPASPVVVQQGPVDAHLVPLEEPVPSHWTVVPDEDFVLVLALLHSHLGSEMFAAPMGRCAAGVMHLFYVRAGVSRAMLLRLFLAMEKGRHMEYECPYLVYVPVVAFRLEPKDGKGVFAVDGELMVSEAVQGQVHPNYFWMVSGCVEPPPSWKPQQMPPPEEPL

Structure (SMILES) | inhibition at 10 µM (recombinant human SphK2; [3]) [%] | inhibition at 10 µM (recombinant human SphK2; [4]) [%] | inhibition at 10 µM (recombinant human SphK2; [5]) [%] | inhibition at 10 µM (recombinant human SphK2; [6]) [%] | inhibition at 10 µM (recombinant human SphK1; [7]) [%] | inhibition at 10 µM (recombinant human SphK1; [8]) [%] | inhibition at 10 µM (recombinant human SphK1; [9]) [%] | inhibition at 10 µM (recombinant human SphK1; [10]) [%] | other results
CC(=O)N(C1=C(Cl)C(=O)c2ccccc2C1=O)C1CCCCC1 [CB5468139] | – | – | – | – | – | – | – | – | EC50 [1]: 10 to 15 µM; Concentration up to which SphK2 activity is not affected (SphK2): > 100 µM; Ki (SphK1): 0.3 µM
COc1ccc(OC2=CC(=O)c3ccc(C)nc3C2=O)cc1 [Compound 4] | 37 | 36.8 | 37.5 | 36.3 | 69 | 69.2 | 58.5 | 77.5 | Mean Growth (%) (NCI-60 cell line panel): 84.4%; IC50 (recombinant human SphK2): 8.47 µM and 8 µM; IC50 (recombinant human SphK1): 30.2 µM and 30 µM; Selectivity between SphK1 and SphK2 (in words) (recombinant human SphK1): a level of selectivity for SphK1
COc1cccc(OC2=CC(=O)c3ccc(C)nc3C2=O)c1 [Compound 5, 7-(3-Methoxyphenoxy)-2-methylquinoline-5,8-dione] | – | 49.7 | 50.1 | 49.3 | – | 39.9 | 37.8 | 41.5 | Mean Growth (%) (NCI-60 cell line panel): 88.5%
Cc1ccc2c(n1)C(=O)C(Oc1ccc(F)cc1)=CC2=O [Compound 6, 7-(4-Fluorophenoxy)-2-methylquinoline-5,8-dione] | ≥ 56 | 59.6 | 58.6 | 60.4 | ≥ 54 | 54.2 | 53.4 | 54.8 | Mean Growth (%) (NCI-60 cell line panel): 88.2%
Cc1ccc2c(n1)C(=O)C(Oc1ccc(C#N)cc1)=CC2=O [Compound 7, 2-Methyl-7-(4-(cyano)phenoxy)quinoline-5,8-dione] | ≥ 56 | 55.6 | 53.6 | 57.2 | ≥ 54 | 54.7 | 54.1 | 55.2 | Mean Growth (%) (NCI-60 cell line panel): 97.3%
Cc1ccc2c(n1)C(=O)C(Oc1ccc(Cl)c(Cl)c1)=CC2=O [Compound 8, 7-(3,4-Dichlorophenoxy)-2-methylquinoline-5,8-dione] | – | 37.8 | 36 | 39.2 | 26 | 25.3 | 17 | 32.1 | –
Cc1ccc2c(n1)C(=O)C(Oc1ccc(F)c(F)c1)=CC2=O [Compound 9, 7-(3,4-Difluorophenoxy)-2-methylquinoline-5,8-dione] | – | 25.2 | 27.4 | 23.5 | 20 | 20.3 | 14.4 | 25.1 | –
Cc1ccc2c(n1)C(=O)C(Oc1ccc(F)c(Cl)c1)=CC2=O [Compound 10, 7-(3-Chloro-4-fluorophenoxy)-2-methylquinoline-5,8-dione] | 0 | -1.9 | -4.7 | 0.3 | 0 | -7.2 | -7.7 | -6.5 | –
Cc1ccc2c(n1)C(=O)C(Oc1ccc(CCO)cc1)=CC2=O [Compound 11, 7-(4-(2-Hydroxyethyl)phenoxy)-2-methylquinoline-5,8-dione] | – | 33.1 | 31.4 | 34.5 | – | 19 | 17.6 | 20.1 | –
Cc1ccc2c(n1)C(=O)C(Oc1ccc(Br)cc1)=CC2=O [Compound 12, 7-(4-Bromophenoxy)-2-methylquinoline-5,8-dione] | – | – | – | – | – | – | – | – | Mean Growth (%) (NCI-60 cell line panel): 90.5%
COc1ccc(OC2=CC(=O)c3ccc(C=O)nc3C2=O)cc1 [Compound 13, 7-(4-Methoxyphenoxy)-5,8-dioxo-5,8-dihydroquinoline-2-carbaldehyde] | – | 39.7 | 38.1 | 41.1 | – | 14.6 | 4.3 | 22.6 | –
COc1cccc(OC2=CC(=O)c3ccc(C=O)nc3C2=O)c1 [Compound 14, 7-(3-Methoxyphenoxy)-5,8-dioxo-5,8-dihydroquinoline-2-carbaldehyde] | – | 0.4 | -1.7 | 2 | – | -6.7 | -8.6 | -4.9 | –
O=Cc1ccc2c(n1)C(=O)C(Oc1ccc(F)cc1)=CC2=O [Compound 15, 7-(4-Fluorophenoxy)-5,8-dioxo-5,8-dihydroquinoline-2-carbaldehyde] | – | 22.1 | 18.1 | 25.3 | – | 11.1 | 6.2 | 15.2 | –
O=Cc1ccc2c(n1)C(=O)C(Oc1ccc(F)c(F)c1)=CC2=O [Compound 18, 7-(3,4-Difluorophenoxy)-5,8-dioxo-5,8-dihydroquinoline-2-carbaldehyde] | – | -16.4 | -19.8 | -13.7 | – | -22.7 | -26.7 | -19.2 | –
O=Cc1ccc2c(n1)C(=O)C(Oc1ccc(Br)cc1)=CC2=O [Compound 19, 7-(4-Bromophenoxy)-5,8-dioxo-5,8-dihydroquinoline-2-carbaldehyde] | – | 3.2 | 6.8 | 0.3 | – | -0.9 | -4.1 | 1.8 | –
COc1ccc(OC2=CC(=O)c3ccc(CN4CCC[C@@H]4CO)nc3C2=O)cc1 [Compound 20, (R)-2-((2-(Hydroxymethyl)pyrrolidin-1-yl)methyl)-7-(4-methoxyphenoxy)quinoline-5,8-dione] | 82 | 81.6 | 81.2 | 81.9 | 63 | 63.1 | 61.7 | 64.3 | IC50 (recombinant human SphK2): 13.2 µM and 13 µM; IC50 (recombinant human SphK1): 42.3 µM and 42 µM
O=C1C=C(Oc2ccc(F)cc2)C(=O)c2nc(CN3CCC[C@@H]3CO)ccc21 [Compound 21, (R)-7-(4-Fluorophenoxy)-2-((2-(hydroxymethyl)pyrrolidin-1-yl)methyl)quinoline-5,8-dione] | 43 | 43.2 | – | 43.4 | 70 | 69.7 | 62 | 75.8 | –
Cc1cc(CS(=O)(=O)c2ccccc2)cc(OCc2ccc(CN3CCC[C@@H]3CO)cc2)c1 [PF-543] | – | – | – | – | – | – | – | – | Necrotic SCC cells induced by PF-543 ([2]; with addition of ROS scavenger N-acetyl-L-cysteine): 26.3%; Necrotic SCC cells induced by PF-543 ([2]; without ROS scavenger): 48.6%; inhibition at 0.1 µM (recombinant human SphK2; read-out: Spk2 % Inhibition): 0.7%
O=C(NCc1ccncc1)C12CC3CC(C1)CC(c1ccc(Cl)cc1)(C3)C2 [opaganib, reference compound] | 36 | – | – | – | – | – | – | – | inhibition at 10 µM (recombinant human SphK2; read-out: Spk2 % Inhibition, 10uM, Table S2 assay validation): 35.5%; inhibition at 10 µM (recombinant human SphK1; read-out: Spk1 % Inhibition, 10uM, Table S2 assay validation): -8.6%; Selectivity between SphK1 and SphK2 (in words) (recombinant human SphK1): high SphK2 selectivity; Ki (SphK2; ref 20-24 (b6), 19, 22): 9.8 µM; GI50 (60 cell lines (NCI)): 11.5 µM
